We go through nine molecules from DBAASP.

Among the test systems are Escherichia coli UB1005; Staphylococcus aureus; Escherichia coli; Saccharomyces cerevisiae; Streptococcus pneumoniae; Pseudomonas putida; Candida albicans; Bacillus subtilis; Salmonella typhimurium; Cryptococcus neoformans; Serratia marcescens; Streptococcus mutans; Bacillus megaterium; Micrococcus luteus; Aerococcus viridans.
Holding throughout (test): ≥ marks a high value that may be exact or a test limit, other limits are often not marked, values filed in µg/mL are converted to µM
Assay [1] relates to Escherichia coli ATCC 25922.
In assay [2] the test system is Staphylococcus aureus ATCC 29213.
The test system of assay [3] is Pseudomonas aeruginosa PAO1.
Assay [4] has as its system Pseudomonas aeruginosa ATCC 27853.
Assay [5] deals with Bacillus subtilis CMCC 63501.
Assay [6] concerns Salmonella typhimurium ATCC 7731.
Assay [7] deals with Enterococcus faecalis ATCC 29212.
Assay [8] deals with Staphylococcus epidermidis ATCC 12228.
Assay [9] has as its system Salmonella enterica subsp. enterica serovar Typhimurium ATCC 14028.
The test system of assay [10] is Pectobacterium carotovorum.
Assay [11] has as its system Staphylococcus aureus ATCC 25923.
Assay [12] deals with Cryptococcus neoformans ATCC 28957.
Assay [13] relates to Bacillus subtilis ATCC 23857.
For assay [14], the system named is Escherichia coli NEB5alpha.
The test system of assay [15] is Bacillus subtilis ATCC 6051.

Converted amounts (≈) assume the structure as drawn. Where only a bound is given, the exact number is not on record here.

For the molecule `CC[C@H](C)[C@H](NC(=O)[C@H](CCC(=O)O)NC(=O)CNC(=O)[C@@H](NC(=O)[C@H](Cc1ccccc1)NC(=O)[C@H](C)NC(=O)[C@H](CCCCN)NC(=O)CNC(=O)[C@H](Cc1ccccc1)NC(=O)[C@H](CCCCN)NC(=O)[C@H](CCCCN)NC(=O)[C@H](C)N)C(C)C)C(=O)N[C@@H](CCSC)C(N)=O` [AKKFGKAFVGEIM], the MIC (as a rule, the least concentration at which growth counts as inhibited) was 32 µM (≈ 45.6 µg/mL) in [1]; over 64 µM in [2]; over 64 µM in [3]; over 64 µM in [4]; at least 64 µM in [5]; at least 64 µM in assay [6]. Also, the MIC was over 64 µM in [7], over 64 µM in assay [8], at least 64 µM against Escherichia coli UB1005 and over 64 µM in [9].

In the case of `CC[C@H](C)[C@H](NC(=O)[C@H](C)NC(=O)[C@@H](N)CS)C(=O)N[C@@H](CCC(=O)O)C(=O)N[C@@H](Cc1cnc[nH]1)C(=O)N[C@@H](CCSC)C(=O)N[C@@H](CCCN=C(N)N)C(=O)N[C@H](C(=O)N1CCC[C@H]1C(=O)N[C@@H](CC(C)C)C(=O)N[C@@H](CCCCN)C(=O)N1CCC[C@H]1C(=O)N[C@@H](Cc1ccccc1)C(=O)N[C@@H](CO)C(=O)N[C@@H](Cc1ccccc1)C(=O)NCC(=O)N1CCC[C@H]1C(=O)N1CCC[C@H]1C(=O)N[C@@H](Cc1ccc(O)cc1)C(=O)N[C@@H](CC(N)=O)C(=O)N[C@@H](CC(C)C)C(=O)O)[C@@H](C)O` [CAIEHMRTPLKPFSFGPPYNL], in assay [10], the MIC was 3.46 µM (≈ 8.38 µg/mL).

Take `CC(C)C[C@H](NC(=O)CN)C(=O)N[C@@H](CCC(N)=O)C(=O)N[C@@H](Cc1ccccc1)C(=O)N1CCC[C@H]1C(=O)N[C@H](C(=O)NCC(=O)N[C@@H](CCCN=C(N)N)C(=O)N[C@H](C(=O)N[C@@H](Cc1cnc[nH]1)C(=O)N[C@@H](CCCN=C(N)N)C(=O)N[C@@H](CC(C)C)C(=O)N[C@@H](CC(C)C)C(=O)N[C@@H](CCCN=C(N)N)C(=O)N[C@@H](CCCCN)C(=O)O)C(C)C)C(C)C` [GLQFPVGRVHRLLRK]: the MIC against Staphylococcus aureus worked out at 4.5 µM (≈ 8 µg/mL); with Escherichia coli, 2.25 µM (≈ 4 µg/mL); with Saccharomyces cerevisiae it was 4.5 µM (≈ 8 µg/mL); against Streptococcus pneumoniae, 2.25 µM (≈ 4 µg/mL); in the assay with Pseudomonas putida, 2.25 µM (≈ 4 µg/mL); with Candida albicans it was 4.5 µM (≈ 8 µg/mL). The MIC was determined as 2.25 µM (≈ 4 µg/mL) in the assay on Bacillus subtilis; 1.13 µM (≈ 2 µg/mL) against Salmonella typhimurium; 4.5 µM (≈ 8 µg/mL) against Cryptococcus neoformans; 1.13 µM (≈ 2 µg/mL) with Serratia marcescens; 2.25 µM (≈ 4 µg/mL) in the assay with Streptococcus mutans.

Consider `CC[C@H](C)[C@H](NC(=O)[C@H](Cc1ccccc1)NC(=O)[C@H](CC(N)=O)NC(=O)[C@H](Cc1ccc(O)cc1)NC(=O)[C@H](CC(C)C)NC(=O)CN)C(=O)N[C@@H](CCCCN)C(=O)N[C@H](C(=O)N[C@@H](CC(C)C)C(=O)NCC(=O)N[C@@H](CCCN=C(N)N)C(=O)N[C@H](C(=O)N[C@H](C(=O)N[C@@H](Cc1ccccc1)C(=O)NCC(=O)N[C@@H](CC(C)C)C(=O)N[C@@H](Cc1ccc(O)cc1)C(=O)N[C@@H](CCCCN)C(=O)N[C@@H](CCC(N)=O)C(=O)N[C@@H](Cc1ccccc1)C(N)=O)C(C)C)[C@@H](C)O)C(C)C` [GLYNFIKVLGRTVFGLYKQF], for which the MIC in assay [11] is 16 µM (≈ 37.8 µg/mL); in assay [12] it was at least 64 µM; in [13] it was at least 256 µM.

As for `CC[C@H](C)[C@H](N)C(=O)N[C@@H](CC(N)=O)C(=O)NCC(=O)N[C@@H](CCSC)C(=O)N1CCC[C@H]1C(=O)N[C@@H](CCC(=O)O)C(=O)N[C@@H](CCC(=O)O)C(=O)N[C@H](C(=O)N[C@H](C(=O)N[C@@H](C)C(=O)N[C@@H](C)C(=O)O)C(C)C)C(C)C` [INGMPEEVVAA], the MIC in [14] and in assay [15] was at least 1000 µM throughout.

On to `CC[C@H](C)[C@H](NC(=O)[C@H](C)NC(=O)[C@@H](NC(=O)[C@@H]1CCCN1C(=O)[C@@H](NC(=O)[C@H](CC(C)C)NC(=O)[C@@H]1CCCN1C(=O)[C@H](Cc1c[nH]c2ccccc12)NC(=O)[C@H](Cc1ccccc1)NC(=O)[C@H](CCCN=C(N)N)NC(=O)[C@@H](N)CCCCN)C(C)C)C(C)C)C(=O)N[C@@H](CC(N)=O)C(=O)N[C@H](C(=O)N[C@H](C(=O)N[C@@H](C)C(N)=O)C(C)C)[C@@H](C)O` [KRFWPLVPVAINTVA], for which the MIC in assay [1] is over 128 µM; in assay [2] it was over 128 µM; in assay [4], over 128 µM; in [5], at least 128 µM; in assay [6], at least 128 µM; in assay [8], 128 µM (≈ 219 µg/mL). In addition, the MIC with Escherichia coli UB1005 was at least 64 µM; in assay [9], over 128 µM.

Consider `CC(C)C[C@H](NC(=O)[C@H](CCCN=C(N)N)NC(=O)[C@H](CC(C)C)NC(=O)[C@H](CC(C)C)NC(=O)[C@H](CCC(N)=O)NC(=O)[C@H](CCC(=O)O)NC(=O)[C@@H](N)CC(C)C)C(=O)N[C@@H](CCCCN)C(=O)N[C@@H](CCCCN)C(=O)N[C@@H](Cc1ccc(O)cc1)C(=O)O` [LEQLLRLKKY], for which the minimum inhibitory concentration (MIC) in assay [14] is at least 633 µM; in assay [15] it was at least 1270 µM.

In the case of `CC[C@H](C)[C@H](NC(=O)CNC(=O)CNC(=O)[C@@H](NC(=O)[C@@H]1CCCN1C(=O)[C@H](Cc1ccccc1)NC(=O)[C@H](CCC(N)=O)NC(=O)[C@H](CC(C)C)NC(=O)CNC(=O)[C@H](C)NC(=O)[C@@H](N)CCCN=C(N)N)C(C)C)C(=O)NCC(=O)N[C@@H](CCCCN)C(=O)N[C@@H](Cc1ccccc1)C(=O)N[C@@H](CC(C)C)C(=O)N[C@@H](Cc1cnc[nH]1)C(=O)N[C@@H](CO)C(=O)N[C@@H](C)C(=O)N[C@@H](CCCCN)C(=O)N[C@@H](CCCCN)C(=O)N[C@@H](Cc1ccccc1)C(=O)NCC(=O)N[C@@H](CCCCN)C(=O)O` [RAGLQFPVGGIGKFLHSAKKFGK], the MIC amounted to 6.55 µM (≈ 16 µg/mL) in the assay on Staphylococcus aureus; 6.55 µM (≈ 16 µg/mL) in the assay on Escherichia coli; 1.64 µM (≈ 4 µg/mL) against Saccharomyces cerevisiae; 6.55 µM (≈ 16 µg/mL) in the assay with Streptococcus pneumoniae; 13.1 µM (≈ 32 µg/mL) with Pseudomonas putida; 1.64 µM (≈ 4 µg/mL) with Candida albicans. The MIC was 6.55 µM (≈ 16 µg/mL) against Bacillus subtilis; 3.27 µM (≈ 8 µg/mL) in the assay on Salmonella typhimurium; 1.64 µM (≈ 4 µg/mL) in the assay with Cryptococcus neoformans; 6.55 µM (≈ 16 µg/mL) against Serratia marcescens; 6.55 µM (≈ 16 µg/mL) against Streptococcus mutans.

Turning to `CSCC[C@H](NC(=O)[C@H](CCCN=C(N)N)NC(=O)[C@H](CCC(N)=O)NC(=O)[C@@H]1CSSC[C@H](NC(=O)[C@@H](N)Cc2ccc(O)cc2)C(=O)N[C@@H](CC(N)=O)C(=O)N[C@@H](CCCN=C(N)N)C(=O)N[C@@H](CCCN=C(N)N)C(=O)N[C@@H]([C@@H](C)O)C(=O)NCC(=O)N[C@@H](CCCCN)C(=O)N1)C(=O)O` [YCNRRTGKCQRM], the MIC in the assay with Bacillus megaterium, with Micrococcus luteus and in the assay with Aerococcus viridans was 28.3 µM (≈ 42.8 µg/mL) throughout.
